Like-named read-outs stand apart in the source and are kept apart here.
System: NL-RLuc virus
Assay: Inhibition of HIV replication (NL-RLuc luciferase reporter virus in MT-2 cells)
Assay type: cell-based
Conditions: Human immunodeficiency virus 1, MT2, 120 h
Outline: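 The read-out is Renilla luciferase expressed by replication-competent NL-RLuc (nef partly replaced), measured 5 days after infection of MT-2 cells grown with compound dilutions in 10% FBS RPMI. Median effect equation gives EC50 from ≥2 runs; A ≤100 nM, B 100 nM–1 uM, C >1 uM.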

SMILES | EC50 (read-out: Activity) [µM] | EC50 (read-out: EC50 μM) [µM]
CCOCCOCc1nc(C)c([C@H](OC(C)(C)C)C(=O)O)c(N2CCC(C)(C)CC2)c1-c1ccc2c(c1)CCN(Cc1ccc(F)cc1C)C2 [Example 160, (S)-2-(tert-Butoxy)-2-(4-(4,4-dimethylpiperidin-1-yl)-6-((2-ethoxyethoxy)methyl)-5-(2-(4-fluoro-2-methylbenzyl)-1,2,3,4-tetrahydroisoquinolin-6-yl)-2-methylpyridin-3-yl)acetic acid] | < 0.1 | 
Cc1nc(COCC2COC2)c(-c2ccc(OCCc3ccc(F)cc3)cc2)c(N2CCC(C)(C)CC2)c1[C@H](OC(C)(C)C)C(=O)O [Example 7, (S)-2-(tert-Butoxy)-2-(4-(4,4-dimethylpiperidin-1-yl)-5-(4-(4-fluorophenethoxy)phenyl)-2-methyl-6-((oxetan-3-ylmethoxy)methyl)pyridin-3-yl)acetic acid] | < 0.1 | 
CC1(C)CCN(c2c([C@H](OC(C)(C)C)C(=O)O)cnc(CO)c2-c2ccc(OCCc3ccc(F)cc3)cc2)CC1 [Example 181, (S)-2-(tert-butoxy)-2-(4-(4,4-dimethylpiperidin-1-yl)-5-(4-(4-fluorophenethoxy)phenyl)-6-(hydroxymethyl)pyridin-3-yl)acetic acid] | < 0.1 | 
Cc1nc(CNc2ccccc2)c(-c2ccc(OCCc3ccc(F)cc3)cc2)c(N2CCC(C)(C)CC2)c1[C@H](OC(C)(C)C)C(=O)O [Example 73, (S)-2-(tert-Butoxy)-2-(4-(4,4-dimethylpiperidin-1-yl)-5-(4-(4-fluorophenethoxy)phenyl)-2-methyl-6-((phenylamino)methyl)pyridin-3-yl)acetic acid] | < 0.1 | 
Cc1nc(/C=C\COC(C)C)c(-c2ccc(OCCc3ccc(F)cc3)cc2)c(N2CCC(C)(C)CC2)c1[C@H](OC(C)(C)C)C(=O)O [Example 55, (S,Z)-2-(tert-Butoxy)-2-(4-(4,4-dimethylpiperidin-1-yl)-5-(4-(4-fluorophenethoxy)phenyl)-6-(3-isopropoxyprop-1-en-1-yl)-2-methylpyridin-3-yl)acetic acid] | < 0.1 | 
CCOCCOCc1nc(C)c([C@H](OC(C)(C)C)C(=O)O)c(N2CCC(C)(C)CC2)c1-c1ccccc1 [Example 34, (S)-2-(tert-Butoxy)-2-(4-(4,4-dimethylpiperidin-1-yl)-6-((2-ethoxyethoxy)methyl)-2-methyl-5-phenylpyridin-3-yl)acetic acid] | < 0.1 | 
Cc1nc(CC2CCCCC2)c(-c2ccc(OCCc3ccc(F)cc3)cc2)c(N2CCC(C)(C)CC2)c1[C@H](OC(C)(C)C)C(=O)O [Example 172, (S)-2-(tert-Butoxy)-2-(6-(cyclohexylmethyl)-4-(4,4-dimethylpiperidin-1-yl)-5-(4-(4-fluorophenethoxy)phenyl)-2-methylpyridin-3-yl)acetic acid] | < 0.1 | 
CC1(C)CCN(c2c([C@H](OC(C)(C)C)C(=O)O)cnc(CCl)c2-c2ccc(OCCc3ccc(F)cc3)cc2)CC1 [Example 184, (S)-2-(tert-Butoxy)-2-(6-(chloromethyl)-4-(4,4-dimethylpiperidin-1-yl)-5-(4-(4-fluorophenethoxy)phenyl)pyridin-3-yl)acetic acid] | < 0.1 | 0.04
Cc1nc(CN2C3CC2CN(Cc2ccccc2)C3)c(-c2ccc(OCCc3ccc(F)cc3)cc2)c(N2CCC(C)(C)CC2)c1[C@H](OC(C)(C)C)C(=O)O [Example 98, (2S)-2-(6-((3-Benzyl-3,6-diazabicyclo[3.1.1]heptan-6-yl)methyl)-4-(4,4-dimethylpiperidin-1-yl)-5-(4-(4-fluorophenethoxy)phenyl)-2-methylpyridin-3-yl)-2-(tert-butoxy)acetic acid] | < 0.1 | 
Cc1ncc(Br)c(N2CCC(C)(C)CC2)c1[C@H](OC(C)(C)C)C(=O)O [Example 62, (S)-2-(5-Bromo-4-(4,4-dimethylpiperidin-1-yl)-2-methylpyridin-3-yl)-2-(tert-butoxy)acetic acid] | < 0.1 | 
COC1CCN(Cc2nc(C)c([C@H](OC(C)(C)C)C(=O)O)c(N3CCC(C)(C)CC3)c2-c2ccc(OCCc3ccc(F)cc3)cc2)CC1 [Example 85, (S)-2-(tert-Butoxy)-2-(4-(4,4-dimethylpiperidin-1-yl)-5-(4-(4-fluorophenethoxy)phenyl)-6-((4-methoxypiperidin-1-yl)methyl)-2-methylpyridin-3-yl)acetic acid] | < 0.1 | 0.001
